Measured values published in PubChem BioAssay AID1418 (Emory University Molecular Libraries Screening Center, 2008).
The source made the active and inactive calls. No rule for the calls is given here.

What follows are compounds tested against Induced myeloid leukemia cell differentiation protein Mcl-1 (Homo sapiens) (UniProt Q07820) (assay: blockers of Bid binding to Mcl-1 – biochemical, TR-FRET, dose response (AID 1418)). Conditions: Mcl-1/Bid peptide binding, TR-FRET (europium/Dy647), 2 hr.
Sequence of Induced myeloid leukemia cell differentiation protein Mcl-1 (Homo sapiens) (Q07820 whole entry, looked up): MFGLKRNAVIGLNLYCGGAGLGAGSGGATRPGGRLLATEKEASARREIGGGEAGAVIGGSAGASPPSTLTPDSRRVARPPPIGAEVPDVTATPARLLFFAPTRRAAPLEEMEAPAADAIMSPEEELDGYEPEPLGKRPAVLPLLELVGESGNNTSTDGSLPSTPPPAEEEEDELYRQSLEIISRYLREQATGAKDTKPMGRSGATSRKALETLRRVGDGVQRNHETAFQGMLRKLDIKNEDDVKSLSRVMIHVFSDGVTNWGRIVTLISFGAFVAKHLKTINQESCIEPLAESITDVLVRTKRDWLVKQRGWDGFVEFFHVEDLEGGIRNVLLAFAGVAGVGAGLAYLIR

Row | Structure (SMILES) | IC50
1 | O=C(CSc1nc2c(cnn2-c2ccc(F)cc2)c(=O)[nH]1)N1CCCc2ccccc21 | > 54 µM (inactive)
2 | COCCCNCC(=O)Nc1sc(C)c(C)c1C(=O)OC | > 54 µM (inactive)
3 | CCOc1ccc(N2C(=O)c3cccnc3C2Nc2ccc(F)cc2)cc1 (centres undefined) | > 54 µM (inactive)
4 | O=C(O)c1ccc(N2C(=O)/C(=C/c3ccc(-c4ccc([N+](=O)[O-])cc4)o3)C=C2c2ccccc2)cc1 | 1.42 µM
5 | COc1ccc(CCNC(=O)c2ccc(CNS(=O)(=O)c3ccc(C(C)(C)C)cc3)cc2)cc1OC | > 54 µM (inactive)
6 | COC(=O)c1ccccc1NC(=O)COC(=O)/C=C/c1ccco1 | > 54 µM (inactive)
7 | Cc1ccc(C(=O)OC2=CC(=O)CC(C)(C)C2)cc1 | > 54 µM (inactive)
8 | COC(CNC(=O)c1ccc2nc(-c3cccs3)c(-c3cccs3)nc2c1)OC | > 54 µM (inactive)
9 | O=C1NC(=O)N(c2ccc(F)cc2)C(=O)/C1=C/c1ccc2c(c1)CCCN2Cc1ccccc1 | 0.79 µM
10 | C/C(=N\NC(=O)c1cc(-c2cccc([N+](=O)[O-])c2)n[nH]1)c1ccccc1O | 29 µM
11 | CCOC(=O)C1CCN(C(=O)c2cc(S(=O)(=O)N3CCOCC3)c(Cl)cc2Cl)CC1 | > 54 µM (inactive)
12 | CNC(=O)C(=O)NCCN1CCN(C(=O)c2ccc([N+](=O)[O-])cc2)CC1 | > 54 µM (inactive)
13 | CC(C)(C)C(O)C(Oc1ccc(Cl)cc1)n1cncn1 (centres undefined) | > 54 µM (inactive)
14 | CN1CCN(Cc2cccc(Oc3ccc(Cl)cc3)c2)CC1 | > 54 µM (inactive)
15 | O=C(CCCN1C(=O)c2ccccc2C1=O)Nc1ccccc1 | > 54 µM (inactive)
16 | Cc1ccc(C)c(NC(=O)C2CCCN2/C=C/C(=O)C(F)(F)F)c1 (centres undefined) | > 54 µM (inactive)
17 | C=CCOC(=O)c1cc(-c2ccc(/C=C3\C(=O)NC(=O)C(C#N)=C3C)o2)ccc1Cl | 0.53 µM
18 | O=C(N/N=C/c1ccc(-c2ccc(Cl)c(C(=O)O)c2)o1)c1cc2c(ccc3ccccc32)o1 | 8.18 µM
19 | CCOC(=O)N1CCN(C(=O)CSc2ccc3nnc(CCNC(=O)c4ccc(OC)cc4)n3n2)CC1 | > 54 µM (inactive)
20 | COc1cccc(NC(=O)C(=O)N/N=C/c2cc(C)n(-c3ccc(Cl)c(Cl)c3)c2C)c1 | > 54 µM (inactive)
21 | O=C(Nc1ccc(Cl)cc1)N1CCc2[nH]c3ccccc3c2C1 | > 54 µM (inactive)
22 | S=C(NCc1ccc(Cl)cc1)NC1CCN(Cc2ccccc2)CC1 | > 54 µM (inactive)
23 | COc1ccc(CCNC(=O)COC(=O)Cc2ccccc2)cc1 | > 54 µM (inactive)
24 | Cc1ccc(-c2nnc(N3CC(C)OC(C)C3)c3ccccc23)cc1 (centres undefined) | > 54 µM (inactive)
25 | CC(Oc1ccc(Cl)cc1Cl)C(=O)N(C)c1ccccc1 (centres undefined) | > 54 µM (inactive)

Row | Structure (SMILES) | IC50
26 | C#CCOCCOCCOCCNc1nc(N2CCN(C(=O)[C@H](Cc3cc4ccccc4[nH]3)n3cc([C@@H](N)CC(C)C)nn3)CC2)nc(N2CCN(C(=O)[C@H](Cc3cc4ccccc4[nH]3)n3cc([C@@H](N)CC(C)C)nn3)CC2)n1 | 24.2 µM
27 | COc1ccccc1C(=O)NC(=S)NNC(=O)c1sc2ccccc2c1Cl | 1.7 µM
28 | Oc1cc2c(cc1C(c1ccc(Cl)c(Cl)c1)N1CCCC1)OCO2 (centres undefined) | 0.59 µM
29 | COCCn1c(SCC(=O)NC(=O)NCc2ccccc2)nc2ccccc21 | > 54 µM (inactive)
30 | Cc1ccccc1C(=O)Nc1ccc2c(C#N)c3nc4ccccc4nc3n2c1 | 1.05 µM
31 | COc1cc(/C=C2/SC(N)=NC2=O)ccc1Oc1ccc([N+](=O)[O-])cc1[N+](=O)[O-] | 3.5 µM
32 | O=C(N/N=C/C=C/c1ccc([N+](=O)[O-])cc1)c1cccs1 | inactive
33 | Oc1[nH]c2ccccc2c1/C=N/N1CCCCC1 | > 54 µM (inactive)
34 | COc1ccc(N2C(=O)/C(=C/C=C/c3ccccc3[N+](=O)[O-])C(=O)NC2=S)cc1 | 1.05 µM
35 | O=C(/C=C/N1CCOCC1)c1coc2ccccc12 | > 54 µM (inactive)
36 | COc1cccc(CNC(=O)C2CCN(S(=O)(=O)N3CCCCC3)CC2)c1 | > 54 µM (inactive)
37 | CC(C)[C@H](NC(=O)NCCC1=CCCCC1)C(=O)O | > 54 µM (inactive)
38 | CCOC(=O)c1sc2nc3c(SCCC(=O)O)cc(C(=O)c4cc(OC)ccc4O)cn3c(=O)c2c1C | 1.66 µM
39 | CC(C)C1(C)N=C(c2ncccc2C(=O)O)NC1=O (centres undefined) | > 54 µM (inactive)
40 | CCn1c(SCC(=O)NCc2ccco2)nnc1-c1ccc(N)cc1 | > 54 µM (inactive)
41 | CCC(=NC(C)c1ccccc1)c1c(O)[nH]c(=O)[nH]c1=O (centres undefined) | 0.45 µM
42 | COc1ccc(N2CCN(C(=O)c3ccc4c(c3)OCO4)CC2)cc1 | > 54 µM (inactive)
43 | NCCCC[C@H](NC(=O)C1CCNCC1)c1nnc(CN)o1 | > 54 µM (inactive)
44 | COc1ccc(C2SCC(=O)N2CCCN(C)C)cc1 (centres undefined) | > 54 µM (inactive)
45 | O=C(O)c1ccccc1-c1ccc(/C=c2\sc3nc4cc(Br)cnc4n3c2=O)o1 | 18.5 µM
46 | Clc1ccc(SCCn2ccnc2)cc1 | inactive
47 | CCOC(=O)c1cc2occc2n1CC(=O)NC1CCCCC1C (centres undefined) | > 54 µM (inactive)
48 | O=C(COc1cccc2c1CCN(Cc1ccc(Br)cc1)C2=O)NCc1ccco1 | > 54 µM (inactive)
49 | Cc1n[nH]c(C)c1S(=O)(=O)N1CCN(c2ccccn2)CC1 | > 54 µM (inactive)
